Measured values reported in paper PMC6968775, “Assessment of contribution of BCRP to intestinal absorption of various drugs using portal‐systemic blood concentration difference model in mice” (Pharmacology Research & Perspectives, 2020).
Values joined by “and” are separate entries in the source; they are usually repeats but may differ in a detail not shown here. Equal entries are not always repeated. Structures can show the parent of a compound that is named as a salt.

Assays:
[1] = cited from earlier work
[2] = Pharmacokinetics after iv and oral administration, P‐S difference method, Bcrp(−/−) mice; assay type: in vivo
Procedure: (§1) Male Mdr1a/1b(−/−) and Bcrp(−/−) mice, and WT mice of the same genetic background (FVB) were obtained from Taconic Farms (Germantown, NY, USA). […] Food and water were available ad libitum. All experiments were carried out in accordance with the principles and procedures outlined in the National Institutes of Health Guide for the Care and Use of Laboratory.
(§2) All the mice were fasted overnight with free access to tap water. In the intravenous administration studies, model compounds were administered via the tail vein at doses of 1 mg/kg (n = 3). Following administration, blood samples were collected from the abdominal vein of the anesthetized mice at 0.083, 0.17, 0.5, 1, 2, 4, and 8 hours. […] Following administration, blood samples were taken from the portal and abdominal veins of the anesthetized mice at 0.083, 0.17, 0.5, 1, 2, 4, and 8 hours. The plasma samples were separated by centrifugation at 14 000g for 10 minutes at 4°C and stored at −30°C until analysis.
(§3) After organic layer was evaporated at 60°C, the resultant residues were dissolved in a mobile phase. For the determination of topotecan and sulfasalazine, plasma samples were mixed with acetonitrile, centrifuged at 750 g for 10 minutes at 4°C, and the supernatants were collected. After the evaporation of the supernatants, the residues were dissolved in a mobile phase, and acidified with phosphoric acid for topotecan. All drugs were analyzed by HPLC system (Shimadzu LC‐10AS pump, Shimadzu SIL‐10A autosampler) equipped with a reverse‐phase column (COSMOSIL 5C18‐AR‐II, 3.5‐μm […], 4.6 × 150 mm).
(§4) Elimination rate constant (k e) was determined by the least squares regression analysis of plasma concentration vs time curve. Elimination half‐life (t 1/2) was calculated using Eq.1:(1) t1/2=ln2/ke
(§5) Area under plasma concentration‐time curve (AUC) and area under the first moment curve (AUMC) from time 0 to infinity were calculated by trapezoidal rule.
(§6) Absorption rate constant (k a) after oral administration was calculated by the nonlinear least squares fitting with program MULTI.12
(§7) BA was calculated by Eq.5:(7) BA=AUCoral/AUCiv×Doseiv/Doseoral×100 where AUCoral is AUC after oral administration. Doseiv and Doseoral are administered dose in the intravenous and oral administration study, respectively.
(§8) Hepatic availability (F h) was calculated by Eq.6:(8) Fh=F/Fa×Fg

[3] = Pharmacokinetics after iv and oral administration, P‐S difference method, Mdr1a/1b(−/−) mice; assay type: in vivo
Procedure: as §1, §2, §3, §4, §5, §6, §7, §8

P‐gp [4] = conditions: Caco‐2 permeability study; unpublished data; ref Fujita et al, manuscript in preparation; cited from earlier work
P‐gp [5] = tested on: P‐gp
BCRP [6] = conditions: calculated from k a in WT, Bcrp(−/−) and Mdr1a/1b(−/−) mice (Eq. 9)
BCRP [7] = assay: Human AQBCRP estimated from the clinical data; assay type: in vivo
[8] = Blood/plasma concentration ratio (R b) in fresh whole blood; assay type: in vitro ADME, FVB mice; conditions: fresh whole blood, FVB mouse whole blood, 37°C
Procedure: Similarly, the model compounds were added to plasma, and reference blood samples were obtained according to the same procedure. These concentrations of drugs in each sample were analyzed using HPLC (C B and C P, respectively). R b value was calculated by dividing C B by C P.

[9] = Pharmacokinetics after iv and oral administration, P‐S difference method, wild‐type mice; assay type: in vivo; conditions: for half-life / AUC(0-inf) / Cmax / Tmax: 1 mg/kg
Procedure: as §1, §2, §3, §4, §5, §6, §7, §8

[10] = Bcrp(−/−) mice, p.o. (ciprofloxacin 1, nitrofurantoin 2, topotecan 1, sulfasalazine 5 mg/kg)
[11] = male, Bcrp(−/−) (FVB background), mouse, portal vein plasma, po, 1 mg/kg
[12] = male, Bcrp(−/−) (FVB background), mouse, systemic plasma (abdominal vein), po, 1 mg/kg
[13] = Mdr1a/1b(−/−) mice, p.o. (ciprofloxacin 1, nitrofurantoin 2, topotecan 1, sulfasalazine 5 mg/kg)
[14] = male, Mdr1a/1b(−/−) (FVB background), mouse, portal vein plasma, po, 1 mg/kg
[15] = male, Mdr1a/1b(−/−) (FVB background), mouse, systemic plasma (abdominal vein), po, 1 mg/kg
[16] = male, FVB (wild-type), mouse, portal vein plasma, po
[17] = male, FVB (wild-type), mouse, systemic plasma (abdominal vein), po
[18] = wild‐type mice, p.o. (ciprofloxacin 1, nitrofurantoin 2, topotecan 1, sulfasalazine 5 mg/kg)

CC[C@@]1(O)C(=O)OCc2c1cc1n(c2=O)Cc2cc3c(CN(C)C)c(O)ccc3nc2-1 [topotecan, Topotecan HCl]
BA after oral administration ([1]; human clinical studies): about 40%
human BA ([1]; human): 40%
oral BA, patients heterozygous variant for the BCRP SNP vs normal BCRP ([1]; human): 1.3 fold
BA when GF120918 is orally coadministered ([1]; human, with GF120918 (BCRP inhibitor)): 100%
F h [2, 10]: 74.0%
k a [2, 10]: 5.18 h⁻¹
BA ([2]; Bcrp(−/−) mice, p.o. (ciprofloxacin 1, nitrofurantoin 2, topotecan 1, sulfasalazine 5 mg/kg) vs iv 1 mg/kg): 76.3%
F a F g ([2]; Bcrp(−/−) mice, p.o. (ciprofloxacin 1, nitrofurantoin 2, topotecan 1, sulfasalazine 5 mg/kg), P‐S difference method): 103%
k a, bcrp ([2]; Table 5 summary, Bcrp(−/−) mice, oral administration): 5.18
(F a F g)bcrp ([2]; as fraction, Bcrp(−/−) mice, oral administration): 1.03
half-life ([2]; male, Bcrp(−/−) (FVB background), mouse, plasma, iv, 1 mg/kg, Bcrp(−/−) mice, iv 1 mg/kg): 89.4 min
Cmax [2, 11]: 855 nM
Tmax [2, 11]: 4.8 min
Cmax [2, 12]: 476 nM
Tmax [2, 12]: 10.2 min
AUC(0-inf) ([2]; male, FVB Bcrp(−/−), mouse, plasma (systemic, abdominal vein), iv, 1 mg/kg, Bcrp(−/−) mice, iv 1 mg/kg, read-out: AUC 0→∞): 1.49 µM·h
clearance ([2]; male, FVB Bcrp(−/−), mouse, plasma (systemic, abdominal vein), Bcrp(−/−) mice, iv 1 mg/kg, read-out: CL tot (converted)): 24.5 mL/min/kg
Vd ([2]; male, FVB Bcrp(−/−), mouse, plasma (systemic, abdominal vein), Bcrp(−/−) mice, iv 1 mg/kg, read-out: Vdss): 2.21 L/kg
AUC(0-inf) ([2]; male, FVB Bcrp(−/−), mouse, portal vein plasma, po, 1 mg/kg, Bcrp(−/−) mice, p.o. (ciprofloxacin 1, nitrofurantoin 2, topotecan 1, sulfasalazine 5 mg/kg), portal vein (pv) plasma, read-out: AUC 0→∞ (AUCpv)): 1.51 µM·h
AUC(0-inf) ([2]; male, FVB Bcrp(−/−), mouse, portal vein plasma, po, Bcrp(−/−) mice, p.o. (ciprofloxacin 1, nitrofurantoin 2, topotecan 1, sulfasalazine 5 mg/kg), portal vein (pv) plasma, read-out: AUC 0→∞ (AUCpv)): 1.51 µM·h
half-life ([2]; male, FVB Bcrp(−/−), mouse, systemic plasma (abdominal vein), po, 1 mg/kg, Bcrp(−/−) mice, p.o. (ciprofloxacin 1, nitrofurantoin 2, topotecan 1, sulfasalazine 5 mg/kg), systemic (sys) plasma): 88.2 min
AUC(0-inf) ([2]; male, FVB Bcrp(−/−), mouse, systemic plasma (abdominal vein), po, 1 mg/kg, Bcrp(−/−) mice, p.o. (ciprofloxacin 1, nitrofurantoin 2, topotecan 1, sulfasalazine 5 mg/kg), systemic (sys) plasma, read-out: AUC 0→∞ (AUCsys)): 1.14 µM·h
AUC(0-inf) ([2]; male, FVB Bcrp(−/−), mouse, systemic plasma (abdominal vein), po, Bcrp(−/−) mice, p.o. (ciprofloxacin 1, nitrofurantoin 2, topotecan 1, sulfasalazine 5 mg/kg), systemic (sys) plasma, read-out: AUC 0→∞ (AUCsys)): 1.14 µM·h
AUC pv and AUC sys after oral administration, Bcrp(−/−) mice vs WT mice ([2]; oral administration): approximately 3 fold
F h [3, 13]: 54.8%
k a [3, 13]: 3.68 h⁻¹
BA ([3]; Mdr1a/1b(−/−) mice, p.o. (ciprofloxacin 1, nitrofurantoin 2, topotecan 1, sulfasalazine 5 mg/kg) vs iv 1 mg/kg): 34.9%
F a F g ([3]; Mdr1a/1b(−/−) mice, p.o. (ciprofloxacin 1, nitrofurantoin 2, topotecan 1, sulfasalazine 5 mg/kg), P‐S difference method): 63.8%
k a, P‐gp ([3]; Table 5 summary, Mdr1a/1b(−/−) mice, oral administration): 3.68
(F a F g)P‐gp ([3]; as fraction, Mdr1a/1b(−/−) mice, oral administration): 0.64
clearance ([3]; male, FVB Mdr1a/1b(−/−), mouse, plasma (systemic, abdominal vein), Mdr1a/1b(−/−) mice, iv 1 mg/kg, read-out: CL tot (converted)): 35.5 mL/min/kg
Vd ([3]; male, FVB Mdr1a/1b(−/−), mouse, plasma (systemic, abdominal vein), Mdr1a/1b(−/−) mice, iv 1 mg/kg, read-out: Vdss): 2.19 L/kg
AUC(0-inf) ([3]; male, FVB Mdr1a/1b(−/−), mouse, portal vein plasma, po, 1 mg/kg, read-out: AUC 0→∞ (AUCpv)): 0.589 µM·h
AUC(0-inf) ([3]; male, FVB Mdr1a/1b(−/−), mouse, systemic plasma (abdominal vein), po, 1 mg/kg, read-out: AUC 0→∞ (AUCsys)): 0.358 µM·h
half-life ([3]; male, Mdr1a/1b(−/−) (FVB background), mouse, plasma, Mdr1a/1b(−/−) mice, iv 1 mg/kg): 64.8 min
AUC(0-inf) ([3]; male, Mdr1a/1b(−/−) (FVB background), mouse, plasma, Mdr1a/1b(−/−) mice, iv 1 mg/kg, read-out: AUC 0→∞): 1.02 µM·h
Cmax [3, 14]: 664 nM
Tmax [3, 14]: 4.8 min
Cmax [3, 15]: 242 nM
Tmax [3, 15]: 10.2 min
half-life [3, 15]: 73.8 min
AQp‐gp in vitro (Caco‐2) (P‐gp [4]): 0.14
AQ P‐gp (in vivo) (P‐gp [5]; calculated from k a in WT, Bcrp(−/−) and Mdr1a/1b(−/−) mice (Eq. 10)): 0.08
R P‐gp (rate of P‐gp contribution) (P‐gp [5]; in vivo (mice), calculated from F a F g in WT, Bcrp(−/−) and Mdr1a/1b(−/−) mice (Eq. 12)): 0.06
AQ bcrp (in vivo) (BCRP [6]): 0.35
human AQBCRP (BCRP [7]): 0.58
blood plasma ratio at 15 min, 1 µg/mL [8]: 0.94 ± 0.05
k a, wt ([9]; Table 5 summary, WT mice, oral administration): 3.18
(F a F g) wt ([9]; as fraction, WT mice, oral administration): 0.57
clearance ([9]; male, FVB (wild-type), mouse, plasma (systemic, abdominal vein), wild‐type mice, iv 1 mg/kg, read-out: CL tot (converted)): 36.7 mL/min/kg
Vd ([9]; male, FVB (wild-type), mouse, plasma (systemic, abdominal vein), wild‐type mice, iv 1 mg/kg, read-out: Vdss): 2.59 L/kg
half-life ([9]; male, FVB (wild-type), mouse, plasma, iv, wild‐type mice, iv 1 mg/kg): 75.6 min
AUC(0-inf) ([9]; male, FVB (wild-type), mouse, plasma, iv, wild‐type mice, iv 1 mg/kg, read-out: AUC 0→∞): 0.994 µM·h
Cmax [9, 16]: 720 nM
Tmax [9, 16]: 4.8 min
AUC(0-inf) ([9]; male, FVB (wild-type), mouse, portal vein plasma, po, wild‐type mice, p.o. (ciprofloxacin 1, nitrofurantoin 2, topotecan 1, sulfasalazine 5 mg/kg), portal vein (pv) plasma, read-out: AUC 0→∞ (AUCpv)): 0.577 µM·h
Cmax [9, 17]: 218 nM
Tmax [9, 17]: 30 min
half-life ([9]; male, FVB (wild-type), mouse, systemic plasma (abdominal vein), po, wild‐type mice, p.o. (ciprofloxacin 1, nitrofurantoin 2, topotecan 1, sulfasalazine 5 mg/kg), systemic (sys) plasma): 62.4 min
AUC(0-inf) ([9]; male, FVB (wild-type), mouse, systemic plasma (abdominal vein), po, wild‐type mice, p.o. (ciprofloxacin 1, nitrofurantoin 2, topotecan 1, sulfasalazine 5 mg/kg), systemic (sys) plasma, read-out: AUC 0→∞ (AUCsys)): 0.37 µM·h
F h [9, 18]: 65.6%
k a [9, 18]: 3.18 h⁻¹
F a F g ([9]; wild‐type mice, p.o. (ciprofloxacin 1, nitrofurantoin 2, topotecan 1, sulfasalazine 5 mg/kg), P‐S difference method): 57% and 56.8%
